Like-named read-outs stand apart in the source and are kept apart here.
Molecular target: T1, recombinant human estrone sulfatase (Homo sapiens, UniProt P08842)
T1 construct: made in house; host or cells: Chinese Hamster Ovary (CHO) cells
T1 sequence (P08842 22-583): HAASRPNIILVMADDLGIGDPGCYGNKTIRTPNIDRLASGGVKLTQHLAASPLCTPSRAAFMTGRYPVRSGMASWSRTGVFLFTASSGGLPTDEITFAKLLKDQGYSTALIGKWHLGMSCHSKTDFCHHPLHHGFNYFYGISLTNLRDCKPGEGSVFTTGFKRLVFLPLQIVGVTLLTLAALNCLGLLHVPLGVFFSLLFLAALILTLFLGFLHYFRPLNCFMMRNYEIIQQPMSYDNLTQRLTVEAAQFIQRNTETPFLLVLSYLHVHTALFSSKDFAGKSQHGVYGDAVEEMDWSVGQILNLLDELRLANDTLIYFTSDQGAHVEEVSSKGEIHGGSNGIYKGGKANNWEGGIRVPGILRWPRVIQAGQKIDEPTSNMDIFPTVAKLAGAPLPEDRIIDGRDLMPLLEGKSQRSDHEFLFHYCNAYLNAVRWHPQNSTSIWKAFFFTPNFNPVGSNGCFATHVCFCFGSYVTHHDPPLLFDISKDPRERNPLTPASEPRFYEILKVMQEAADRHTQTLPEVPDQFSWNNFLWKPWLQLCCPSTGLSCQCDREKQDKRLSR
Assay: in vitro conversion assay: inhibition of conversion of 3H-estrone sulfate to 3H-estrone by estrone sulfatase
Assay type: biochemical
Method: The compounds prepared according to the methods of the above Examples were tested for biological activity in inhibiting sulfatase activity using an in vitro conversion assay procedure. As will be appreciated by those skilled in the art, this assay is based on inhibition of the conversion of ^3H-estrone sulfate to ^3H-estrone by the enzyme estrone sulfatase. The final volume of the enzyme assay was 0.15 ml. [6.7-^3H] estrone sulfate (final concentration 3.3 nmole/L; 300,000 dpm/tube); an inhibitor at various concentrations in DMSO and recombinant human estrone sulfatase (33 ng/tube) in phosphate buffered saline, containing 0.25 M sucrose and 0.04 M nicotinamide, pH 7, were added to a 1.5 ml microtube. Recombinant human estrone sulfatase was partially purified from Chinese Hamster Ovary (CHO) cells in which human estrone sulfatase cDNA was transfected. The assay began by the addition of the substrate estrone sulfate. After 60 minutes of incubation at 37° C., 0.5 ml of toluene were added to quench the assay. Control samples with no inhibitor were incubated simultaneously. Blank samples were obtained by incubating without estrone sulfatase. The quenched samples were vortexed for 30 seconds and centrifuged (9,000 rpm for 5 minutes). Two hundred and fifty microliters of toluene were obtained from each quenched sample to determine the amount of product formation. Product formation for samples containing an inhibitor was compared to that of control samples (without inhibitors) run simultaneously. This was reported as percent inhibition of control sample which equals
100× Product formation for sample containing inhibitor Product formation for sample with no inhibitor (control)
Each concentration was tested in duplicate in three separate experiments.

[1] = Table 3 (Example 8; compounds 7, 29d, 29h, 29m), same in vitro conversion assay, read-out: IC50

Structure (SMILES) | IC50 [nM] | IC50 [1] [nM]
CCCN(C)C(=O)[C@H]1CC[C@H]2[C@@H]3CCc4cc(OS(N)(=O)=O)ccc4[C@H]3CC[C@]12C [Compound 29m, 17β-(N-methyl-N-Propylcarbamoyl)estra-1,3,5 (10)-trien-3-yl sulfamate] | 5.5 | 
CC(C)NC(=O)[C@H]1CC[C@H]2[C@@H]3CCc4cc(OS(N)(=O)=O)ccc4[C@H]3CC[C@]12C [Compound 29h, 17β-(N-Isopropylcarbamnoyl)estra-1,3,5(10)-trien-3-yl sulfamate] |  | 17
CCCNC(=O)[C@H]1CC[C@H]2[C@@H]3CCc4cc(OS(N)(=O)=O)ccc4[C@H]3CC[C@]12C [Compound 7, 17β-(N-Propylcarbamoyl)estra-1,3,5(10)-trien-3-yl sulfamate] |  | 19
CC(C)CNC(=O)[C@H]1CC[C@H]2[C@@H]3CCc4cc(OS(N)(=O)=O)ccc4[C@H]3CC[C@]12C [Compound 29d, 17β-(N-Isobutylcarbamoyl)estra-1,3,5(10)-trien-3-yl sulfamate] | 6.5 | 

Source: patent publication US6436918B1, “Steroid sulfatase inhibitors and methods for making and using the same” (Duquesne University of the Holy Ghost, priority 1997, dated 2002)
